The source of these data is PubChem BioAssay (NCI).

Common to all, as to test: DTP human tumour cell line panel, 48 h
Experiment [1] deals with A549 NSCLC.
Experiment [2] has as its system CAKI-1 renal.
The subject of experiment [3] is HCT-116 colon.
The test system of experiment [4] is HOP-92 NSCLC.
The test system of experiment [5] is HT29 colon.
Experiment [6] deals with IGROV1 ovarian.
In experiment [7] the test system is MDA-N.
For experiment [8], the system named is NCI-H226 lung.
In experiment [9] the test system is SK-MEL-28 melanoma.
The subject of experiment [10] is SNB-19 CNS.
Experiment [11] concerns UACC-62 melanoma.
In experiment [12] the test system is CCRF-CEM leukemia.

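In this assay, cells in 96-well plates receive the compound at five concentrations for 48 hours. Endpoints are linearly interpolated between the surrounding concentrations. TGI: concentration producing complete growth inhibition.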

As to `Nn1c(CNc2ccc(-c3nnc(Nc4ccc(Cl)cc4)n3N)cc2)nnc1Nc1ccc(Cl)cc1`, the TGI in experiment [1], in experiment [2], in [3], in experiment [4], in experiment [5] and in [6] was above 100 µM each time. In addition, the concentration for total growth inhibition (TGI) in [7], in experiment [8], in experiment [9], in experiment [10] and in experiment [11] was above 100 µM in each case.

`COc1ccc(-c2cc(-c3ccccc3)n(C3OC(COC(C)=O)C(OC(C)=O)C(OC(C)=O)C3OC(C)=O)c(=S)c2C#N)cc1` (stereo not drawn): the total growth inhibition concentration (TGI) in experiment [1] was found to be 39.3 µM; in experiment [2], 19 µM; in experiment [3] it was 19.2 µM; in experiment [4] it was 15.5 µM; in [5], 18.7 µM; in experiment [6] it was 32 µM. Moreover, the TGI in experiment [7] was determined as 25.5 µM; in experiment [8], 23.1 µM; in [9] it was 25.1 µM; in [10], 23.1 µM; in experiment [11], 16.4 µM.

Regarding `COc1cc(/C=C2\C(=O)N(c3cccc(Cl)c3)C(c3ccccc3)S2(=O)=O)cc(OC)c1OC` (stereo not drawn), the TGI is above 100 µM in experiment [1]; above 100 µM in experiment [2]; 71.8 µM in [12]; above 100 µM in [3]; above 100 µM in experiment [4]; above 100 µM in experiment [5]. Also, the TGI is 46.6 µM in experiment [7]; above 100 µM in experiment [8]; above 100 µM in experiment [9]; above 100 µM in experiment [10]; above 100 µM in experiment [11].

For the compound `O=C1/C(=C/c2ccc(O)cc2)NC(=S)N1CN1CCCCC1`, the total growth inhibition concentration (TGI) in experiment [1], in experiment [12], in experiment [3], in experiment [4], in experiment [5] and in experiment [6] was above 100 µM throughout. Further, the total growth inhibition concentration (TGI) in experiment [7], in [8], in experiment [9], in experiment [10] and in [11] was above 100 µM each time.

Turning to `CC(C)(C)OC(=O)N1C(C2=COc3ccccc3O2)=COc2ccccc21`, the TGI in experiment [1] was above 100 µM; in experiment [2], above 100 µM; in experiment [3] it was 72.7 µM; in experiment [4], 73.2 µM; in experiment [5] it was above 100 µM; in [6] it was above 100 µM. For the same compound, the TGI in [7] is above 100 µM; in experiment [8] it was 88.8 µM; in experiment [9], 87.5 µM; in [10], above 100 µM; in experiment [11], 32.6 µM.

Take `COc1ccc(C2CCc3nc4nc(N)nc(N)c4cc3C2)cc1` (stereo not drawn): the concentration for total growth inhibition (TGI) was above 100 µM in experiment [1]; above 100 µM in experiment [2]; above 100 µM in [3]; 9.31 µM in [4]; 94.3 µM in experiment [5]; 37.9 µM in [6]. For the same compound, the TGI in experiment [7] was above 100 µM; in experiment [8], above 100 µM; in [9], 65 µM; in experiment [10], 31.8 µM; in [11] it was above 100 µM.

With `COc1cc(Cn2c3c(c4c(CN(C)C)c(O)ccc42)C(=O)c2ccccc2C3=O)cc(OC)c1`, the total growth inhibition concentration (TGI) in experiment [1] was 35.1 µM; in experiment [2], 30.4 µM; in experiment [12] it was 52.4 µM; in [3] it was 31.1 µM; in experiment [5], above 100 µM; in [7] it was 31.6 µM. Moreover, the total growth inhibition concentration (TGI) in [8] is above 100 µM; in [9], 29.2 µM; in [10] it was 36.9 µM; in experiment [11], 51.9 µM.

`O=C(N=Nc1ccc([N+](=O)[O-])cc1)NNc1ccc([N+](=O)[O-])cc1`: the TGI in experiment [1] was above 100 µM; in [2], above 100 µM; in experiment [12], 47.1 µM; in [3] it was 30.3 µM; in experiment [5] it was 61.8 µM; in [6], 26.8 µM. For the same compound, the TGI in experiment [7] was 32.3 µM; in experiment [8], 51 µM; in experiment [9], 36.2 µM; in experiment [10] it was above 100 µM; in experiment [11], 22.2 µM.

Turning to `Clc1cc2nc(C3CCCO3)[nH]c2cc1Cl` (stereo not drawn), the TGI in experiment [1], in experiment [12], in experiment [3], in experiment [4], in experiment [5] and in experiment [6] was above 100 µM each time. For the same compound, the total growth inhibition concentration (TGI) in experiment [7] is 58 µM; in experiment [8], above 100 µM; in experiment [9], above 100 µM; in [10], above 100 µM; in experiment [11], above 100 µM.

Regarding `Cc1cccc2c1Oc1cc(Cl)ccc1C2NC(=O)CCN1CCCCC1` (stereo not drawn), the TGI in experiment [1] amounted to 37.5 µM; in [12] it was 32.4 µM; in experiment [3], 32.1 µM; in [4], 10.1 µM; in experiment [5] it was 27.1 µM; in [7] it was 33.1 µM. In addition, the total growth inhibition concentration (TGI) amounted to 29.2 µM in experiment [9], 33 µM in experiment [10] and 30 µM in experiment [11].

`COc1cc(N=C(N)N=C(N)N)c2ncccc2c1`: the TGI in [1], in experiment [2], in [3], in [4], in experiment [5] and in [6] was above 100 µM in each case. Also, the TGI in experiment [7] is above 100 µM; in experiment [8], 62.7 µM; in experiment [9], above 100 µM; in experiment [10], above 100 µM; in [11] it was above 100 µM.

Consider `CCOC(=O)C(Cc1ccc2c(c1)CCC2)(Cc1ccc2c(c1)CCC2)C(=O)OCC`, for which the TGI in [1], in [2], in experiment [12], in [3], in experiment [4] and in experiment [5] was above 100 µM each time. Moreover, the TGI in experiment [6], in experiment [7], in [9] and in experiment [10] was above 100 µM throughout.
